Experiment [1] deals with ECTV. Details: species or system A/NCr mice. The conditions noted are these: mouse, in vivo.
Experiment [2] deals with vaccinia, ectromelia or cowpox. The conditions noted are these: mouse, in vivo; cited from earlier work.
Experiment [3] concerns ectromelia virus. Details: species or system Mice. The conditions noted are these: mouse, in vivo, ip, 12.5 mg/kg/day.

SMILES strings stand for the structures.

As for `Nc1ccn(C[C@@H](CO)OCP(=O)(O)O)c(=O)n1` [Cidofovir], the “protection from death afforded by vaccination in presence vs absence of CDV” value in experiment [1] is “no difference observed”. Further, the “efficacy in protecting mice from a lethal dose” value in experiment [2] was “high efficacy”. For the same molecule, the “effect of cidofovir during vaccination on level of protection from lethal disease” value in experiment [3] is recorded as “did not affect the level of protection”.

Values taken from patent publication US8541167B2 (priority 2004, dated 2013).
